In ChEMBL document CHEMBL1125413 (J Med Chem, 1992):

Legend:
[1] = biological target: T1, Sodium-dependent dopamine transporter (Rattus norvegicus, UniProt P23977)
[2] = biological target: T1, Sodium-dependent dopamine transporter; experiment: Inhibition of [3H]dopamine uptake at dopamine transporter.
[3] = biological target: T1, Sodium-dependent dopamine transporter; remark: listed apart in the source
[4] = biological target: T1, Sodium-dependent dopamine transporter; experiment: Inhibition of [3H]BTCP binding to the dopamine transporter.
[5] = biological target: T1, Sodium-dependent dopamine transporter; experiment: Inhibition of [3H]mazindol binding to the dopamine transporter.
[6] = biological target: T1, Sodium-dependent dopamine transporter; experiment: Potency for the inhibition of [3H]WIN-35428 binding to the dopamine transporter
[7] = biological target: T1, Sodium-dependent dopamine transporter; experiment: Inhibition of [3H]-dopamine uptake at dopamine transporter.
[8] = biological target: T1, Sodium-dependent dopamine transporter; experiment: Inhibition of [3H]WIN-35428 binding to the dopamine transporter
[9] = biological target: T1, Sodium-dependent dopamine transporter; experiment: Inhibition of [3H]GBR-12935 binding to the dopamine transporter.
[10] = biological target: T1, Sodium-dependent dopamine transporter; experiment: Inhibition of [3H]cocaine binding to the dopamine transporter.
[11] = biological target: T1, Sodium-dependent dopamine transporter; experiment: Inhibition of dopamine uptake at dopamine transporter.
[12] = biological target: T1, Sodium-dependent dopamine transporter; experiment: Inhibition of [3H]dopamine uptake at the dopamine transporter.
[13] = biological target: T1, Sodium-dependent dopamine transporter; remark: listed apart in the source

T1 sequence (P23977 whole entry): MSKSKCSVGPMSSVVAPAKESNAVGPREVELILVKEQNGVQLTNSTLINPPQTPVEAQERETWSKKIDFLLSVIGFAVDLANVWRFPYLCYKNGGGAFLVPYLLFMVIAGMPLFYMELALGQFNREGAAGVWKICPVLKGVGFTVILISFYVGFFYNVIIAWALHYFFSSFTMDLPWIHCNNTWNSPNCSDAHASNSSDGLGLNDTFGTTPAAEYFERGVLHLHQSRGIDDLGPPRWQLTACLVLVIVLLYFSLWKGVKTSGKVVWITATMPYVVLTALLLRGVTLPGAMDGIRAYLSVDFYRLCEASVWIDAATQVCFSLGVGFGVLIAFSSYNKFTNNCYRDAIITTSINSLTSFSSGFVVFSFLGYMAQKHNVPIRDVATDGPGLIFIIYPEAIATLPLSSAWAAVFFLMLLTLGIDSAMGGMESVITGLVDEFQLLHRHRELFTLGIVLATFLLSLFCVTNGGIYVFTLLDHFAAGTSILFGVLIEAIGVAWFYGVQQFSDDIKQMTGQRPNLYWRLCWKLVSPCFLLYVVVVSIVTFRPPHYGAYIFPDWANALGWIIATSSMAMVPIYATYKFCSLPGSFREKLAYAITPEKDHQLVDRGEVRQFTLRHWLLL

SMILES: COC(=O)C1C2CC[C@H](C[C@@H]1OC(=O)Nc1cccc([N+](=O)[O-])c1)N2C (stereo partly specified)
- IC50 [1]: 0.33 µM
- IC50 [2]: 0.178 µM
- IC50 [3]: 0.037 µM

SMILES: COC(=O)C1C2CC[C@H](C[C@@H]1OC(=O)c1ccccc1)[N+]2(C)C (stereo partly specified)
- IC50 [4]: 0.008 µM
- IC50 [5]: 20 µM
- IC50 [6]: 10.7 µM
- IC50 [7]: 0.014 µM

SMILES: COC(=O)C1C2CC[C@H](C[C@@H]1OC(=O)c1ccc(N=[N+]=[N-])c(I)c1)N2C (stereo partly specified)
- IC50 [2]: 0.8 µM

SMILES: CN1C2CC[C@@H]1C[C@H](OC(=O)c1ccccc1)C2C(=O)OCCc1ccc(N)cc1 (stereo partly specified)
- IC50 [8]: 0.071 µM

SMILES: COC(=O)C1C2CC[C@H](C[C@@H]1OC(=O)c1ccc(N)cc1)N2C (stereo partly specified)
- IC50 [5]: 3.04 µM
- IC50 [6]: 1.23 µM

SMILES: CN1C2CC[C@@H]1C[C@H](O)C2C(=O)O (stereo partly specified)
- IC50 [1]: 0.0047 µM
- IC50 [5]: > 1000 µM

SMILES: CN1C2CC[C@@H]1C[C@H](OC(=O)c1ccc(N)cc1)C2C(=O)O (stereo partly specified)
- IC50 [1]: 0.009 µM
- IC50 [5]: 4.51 µM
- IC50 [6]: 8.25 µM
- IC50 [7]: 0.035 µM

SMILES: COC(=O)C1C2CC[C@H](C[C@@H]1c1ccc(F)cc1)N2 (stereo partly specified)
- IC50 [3]: 0.036 µM

SMILES: COC(=O)C1C2CC[C@H](C[C@@H]1OC(=O)c1ccccc1)N2Cc1ccccc1 (stereo partly specified)
- IC50 [8]: 0.668 µM
- IC50 [4]: 0.14 µM
- IC50 [2]: 0.077 µM
- IC50 [9]: 0.25 µM
- IC50 [10]: 0.02 µM

SMILES: COC(=O)[C@@H]1C2CC[C@H](C[C@@H]1c1ccccc1)N2C
- IC50 [6]: 0.561 µM

SMILES: CN1[C@@H]2CC[C@H]1C[C@H](OC(=O)c1ccccc1)C2
- IC50 [11]: 186 µM
- IC50 [5]: 15 µM
- IC50 [3]: 23 µM
- IC50 [10]: 3.3 µM
- IC50 [12]: 110 µM

SMILES: COC(=O)[C@@H]1C2CC[C@H](C[C@@H]1c1ccc(N=[N+]=[N-])cc1)N2C
- IC50 [8]: 0.002 µM
- IC50 [11]: 0.2 µM

SMILES: COC(=O)C1C2CC[C@H](C[C@H]1c1ccc(C)cc1)N2C (stereo partly specified)
- IC50 [2]: 0.11 µM
- IC50 [5]: 0.005 µM
- IC50 [6]: 0.002 µM

SMILES: c1ccc2sc(C3(N4CCCCC4)CCCCC3)cc2c1
- IC50 [13]: 0.002 µM
- IC50 [1]: 0.02 µM
- IC50 [4]: 0.005 µM
- IC50 [3]: 0.042 µM

SMILES: COC(=O)C1C2CC[C@H](C[C@@H]1c1ccc(I)cc1)N2C (stereo partly specified)
- IC50 [6]: 0.001 µM

SMILES: CC[C@H](C)[C@H](NC(=O)[C@@H](NC[C@H](CC(C)C)NC(=O)[C@H](Cc1c[nH]cn1)NC(=O)[C@H](Cc1ccccc1)NC(=O)[C@]1(C)CCCN1C(=O)OC(C)(C)C)C(C)C)C(=O)NCc1ccccn1
- IC50 [1]: 0.093 µM
- IC50 [2]: 2.48 µM
- IC50 [5]: 0.178 µM
- IC50 [7]: 0.029 µM

SMILES: COC(=O)C1C2CC[C@H](C[C@@H]1OC(=O)c1cccc(N=C=S)c1)N2C (stereo partly specified)
- IC50 [1]: 0.072 µM
- IC50 [6]: 1.46 µM

SMILES: O=C(O[C@H]1C[C@H]2CCC(N2)C1C(=O)O)c1ccccc1 (stereo partly specified)
- IC50 [5]: 342 µM
- IC50 [10]: 78.2 µM

SMILES: COC(=O)C1C2CC[C@H](C[C@@H]1c1ccccc1)N2 (stereo partly specified)
- IC50 [5]: 0.36 µM
- IC50 [3]: 0.086 µM

SMILES: CN1C2CC[C@@H]1C[C@H](c1ccc(Cl)cc1)C2C(=O)OCCc1ccc(N=[N+]=[N-])c(I)c1 (stereo partly specified)
- IC50 [2]: 1.4 µM

SMILES: CNC(=O)C1C2CC[C@H](C[C@@H]1OC(=O)c1ccccc1)N2C (stereo partly specified)
- IC50 [7]: 2 µM

SMILES: C=CCN1C2CC[C@@H]1C[C@H](OC(=O)c1ccccc1)C2C(=O)OC (stereo partly specified)
- IC50 [2]: 2.5 µM
- IC50 [3]: 1.02 µM

SMILES: COC(=O)C1C2CC[C@H](C[C@@H]1OC(=O)c1ccc(N=C=S)cc1)N2C (stereo partly specified)
- IC50 [1]: 0.276 µM
- IC50 [2]: 2.78 µM
- IC50 [6]: 1.05 µM

SMILES: COC(=O)[C@@H]1C2CC[C@H](C[C@@H]1c1ccc(N)cc1)N2C
- IC50 [11]: 0.557 µM
- IC50 [10]: 0.192 µM

SMILES: COC(=O)C1C2CC[C@H](C[C@@H]1c1ccc(Cl)cc1)N2C (stereo partly specified)
- IC50 [8]: 0.001 µM
- IC50 [11]: 0.03 µM
- IC50 [5]: 0.002 µM

SMILES: COC(=O)C1C2CC[C@H](C[C@@H]1O)N2C (stereo in doubt; 18)
- IC50 [5]: 62 µM

SMILES: COC(=O)C1C2CC[C@H](C[C@@H]1OC(=O)c1ccccc1)N2 (stereo in doubt; 22)
- IC50 [1]: 0.092 µM
- IC50 [5]: 1.21 µM
- IC50 [3]: 0.414 µM
- IC50 [6]: 0.303 µM

SMILES: COC(=O)C1C2CC[C@H](C[C@@H]1OC(=O)c1ccccc1)N2 (stereo in doubt; 23)
- IC50 [2]: 2.5 µM
- IC50 [3]: 0.27 µM

SMILES: COC(=O)C1C2CC[C@H](C[C@@H]1O)N2C (stereo in doubt; 31)
- IC50 [5]: 87 µM

SMILES: COC(=O)[C@@H]1C2CC[C@H](C[C@@H]1c1ccccc1)N2C (stereo in doubt; 47)
- IC50 [2]: 0.96 µM
- IC50 [5]: 0.119 µM
- IC50 [3]: 0.044 µM

SMILES: COC(=O)[C@@H]1C2CC[C@H](C[C@@H]1c1ccccc1)N2C (stereo in doubt; 49)
- IC50 [2]: 1.33 µM
- IC50 [3]: 0.022 µM

SMILES: COC(=O)[C@@H]1C2CC[C@H](C[C@@H]1c1ccccc1)N2C (stereo in doubt; 50)
- IC50 [2]: 200 µM
- IC50 [3]: 32 µM

SMILES: COC(=O)[C@@H]1C2CC[C@H](C[C@@H]1c1ccccc1)N2C (stereo in doubt; 68)
- IC50 [8]: 2.9 µM
- IC50 [5]: 385 µM
- IC50 [10]: 2.6 µM

SMILES: COC(=O)[C@@H]1C2CC[C@H](C[C@@H]1c1ccccc1)N2C (stereo in doubt; 70)
- IC50 [11]: 2.1 µM
- IC50 [10]: 1.2 µM
